Laboratory results from patent US12391680B2, “Compounds and compositions for the treatment of cystic fibrosis” (FONDAZIONE ISTITUTO ITALIANO DI TECNOLOGIA, priority 2019, dated 2025).

Biological target: mutant CFTR (Homo sapiens, UniProt P13569)
Test: Fluorescence assay for CFTR activity (halide-sensitive YFP, HS-YFP)
Assay type: cell-based
Conditions: CFBE41o- and FRT cells with stable expression of mutant CFTR
Experimental: Mutant CFTR activity was determined with the functional assay based on the halide-sensitive yellow fluorescent protein, HS—YFP (Galietta et al., FEBS Lett 499:220-224, 2001). CFBE41o- and FRT cells with stable expression of mutant CFTR and HS—YFP were plated on clear-bottom 96-well black microplates (Code 3603, Corning Life Sciences) at a density of 50,000 cells/well and kept at 37° C. in 5% CO2 for 24 hours.
For the corrector assay, cells were treated for further 24 hours with test compounds, vehicle (DMSO), or the positive control VX-809. After treatment, the culture medium was removed and cells in each well were stimulated for 30 min at 37° C. with 60 μL PBS (containing 137 mM NaCl, 2.7 mM KCl, 8.1 mM Na2HPO4, 1.5 mM KH2PO4, 1 mM CaCl2, and 0.5 mM MgCl2) plus forskolin (20 μM) and genistein (50 μM).
For determination of potentiator activity on F508del-CFTR, cells were incubated for 24 hours at 27° C. to allow trafficking of the mutant protein to plasma membrane. Cells were then stimulated with for 30 min with PBS containing forskolin (20 μM) plus the compound to be tested at the desired concentration. For determination of potentiator activity on G551D-CFTR or G1349D-CFTR, cells were directly stimulated with forskolin plus test compound without previous incubation at low temperature. At the time of assay, microplates carrying CFBE41o- or FRT cells were transferred to microplate readers (BMG Labtech) equipped with high-quality excitation (HQ500/20×: 500±10 nm) and emission (HQ535/30M: 535±15 nm) filters for YFP (Chroma Technology). The assay consisted of a continuous 14 s fluorescence reading with 2 s before and 12 s after injection of an iodide-containing solution (165 μL of a modified PBS containing I^− instead of Cl^−; final I^− concentration in the well: 100 mM). Data were normalized to the initial background-subtracted fluorescence. Enhanced CFTR activity, induced by correctors and/or potentiators, results in accelerated I^− influx that in turn causes faster HS—YFP quenching (Pedemonte et al., Mol Pharmacol 68:1736-1746, 2005; Pedemonte et al., J Clin Invest 115:2564-2571, […]). To determine fluorescence quenching rate associated with I^− influx, the final 10 s of data for each well were fitted with an exponential function to extrapolate initial slope (dF/dt).
EC50 obtained are illustrated in Table 1 wherein+: EC50>2 μM; ++: 1.0 μM <EC50<2 μM; +++: EC50<1 μM.

Chain of mutant CFTR (P13569 with tags, fused parts or gaps DEL508-508): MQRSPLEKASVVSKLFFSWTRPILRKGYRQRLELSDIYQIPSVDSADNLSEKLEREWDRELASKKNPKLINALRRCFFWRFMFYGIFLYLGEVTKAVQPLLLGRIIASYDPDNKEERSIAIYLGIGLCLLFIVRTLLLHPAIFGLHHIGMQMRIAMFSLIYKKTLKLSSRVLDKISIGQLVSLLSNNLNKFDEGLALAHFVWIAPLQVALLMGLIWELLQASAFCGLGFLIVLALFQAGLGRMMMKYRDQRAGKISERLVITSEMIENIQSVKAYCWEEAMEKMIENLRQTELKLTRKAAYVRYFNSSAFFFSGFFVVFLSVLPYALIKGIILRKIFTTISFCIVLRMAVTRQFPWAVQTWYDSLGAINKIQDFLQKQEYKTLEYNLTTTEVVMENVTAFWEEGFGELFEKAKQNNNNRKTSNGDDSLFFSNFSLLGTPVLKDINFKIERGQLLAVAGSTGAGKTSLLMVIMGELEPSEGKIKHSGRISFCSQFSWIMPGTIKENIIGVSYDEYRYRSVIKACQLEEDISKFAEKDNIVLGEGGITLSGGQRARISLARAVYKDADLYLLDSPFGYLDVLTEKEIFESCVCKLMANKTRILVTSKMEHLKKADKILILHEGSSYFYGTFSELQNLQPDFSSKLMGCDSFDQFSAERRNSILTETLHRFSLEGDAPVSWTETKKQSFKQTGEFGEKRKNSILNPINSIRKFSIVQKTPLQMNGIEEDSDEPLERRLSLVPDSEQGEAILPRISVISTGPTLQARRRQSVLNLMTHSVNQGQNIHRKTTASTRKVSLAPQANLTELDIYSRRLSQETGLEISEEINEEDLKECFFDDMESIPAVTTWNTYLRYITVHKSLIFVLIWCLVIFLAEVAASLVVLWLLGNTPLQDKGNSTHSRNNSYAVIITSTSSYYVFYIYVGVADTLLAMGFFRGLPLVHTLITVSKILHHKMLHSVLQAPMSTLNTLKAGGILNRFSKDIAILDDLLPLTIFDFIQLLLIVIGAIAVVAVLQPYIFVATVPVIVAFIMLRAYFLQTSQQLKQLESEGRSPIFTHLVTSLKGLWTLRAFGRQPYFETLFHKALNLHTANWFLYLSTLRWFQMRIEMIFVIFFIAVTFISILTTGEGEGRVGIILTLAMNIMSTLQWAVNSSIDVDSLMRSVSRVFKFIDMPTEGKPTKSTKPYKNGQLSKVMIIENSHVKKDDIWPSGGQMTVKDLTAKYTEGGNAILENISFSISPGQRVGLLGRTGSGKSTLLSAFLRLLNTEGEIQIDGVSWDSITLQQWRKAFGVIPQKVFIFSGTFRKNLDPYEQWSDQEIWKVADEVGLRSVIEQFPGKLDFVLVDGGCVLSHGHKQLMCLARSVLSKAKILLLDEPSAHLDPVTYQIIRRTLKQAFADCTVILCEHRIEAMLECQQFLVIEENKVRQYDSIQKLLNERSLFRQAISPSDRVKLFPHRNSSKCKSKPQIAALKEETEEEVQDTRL

| SMILES | EC50 [nM] |
| --- | --- |
| COc1ccc(S(=O)(=O)N2CCOC(c3c(C(N)=O)sc4ccccc34)C2)cc1OC (racemic) [compound 054, rac-3-[4-(3,4-dimethoxyphenyl)sulfonylmorpholin-2-yl]benzothiophene-2-carboxamide] | > 2000 |
| CNC(=O)c1sc2ccccc2c1C1CN(S(=O)(=O)c2ccc(F)c(C)c2)CCO1 (racemic) [compound 028, rac-3-[4-(4-fluoro-3-methyl-phenyl)sulfonylmorpholin-2-yl]-N-methyl-benzothiophene-2-carboxamide] | > 2000 |
| NC(=O)c1sc2ccccc2c1C1CN(S(=O)(=O)c2c[nH]cn2)CCO1 (racemic) [compound 004, rac-3-[4-(1H-imidazol-4-ylsulfonyl)morpholin-2-yl]benzothiophene-2-carboxamide] | > 2000 |
| Cc1cc(S(=O)(=O)N2CCOC(c3c(C(=O)NC(C)C)sc4ccccc34)C2)ccc1F (racemic) [compound 031, rac-3-[4-(4-fluoro-3-methyl-phenyl)sulfonylmorpholin-2-yl]-N-isopropyl-benzothiophene-2-carboxamide] | > 2000 |
| NC(=O)c1sc2ccccc2c1C1CN(S(=O)(=O)c2ccsc2)CCO1 (racemic) [compound 005, rac-3-[4-(3-thienylsulfonyl)morpholin-2-yl]benzothiophene-2-carboxamide] | > 2000 |
| CC(C)Oc1ccc(S(=O)(=O)N2CCOC(c3c(C(N)=O)sc4ccccc34)C2)cc1 (racemic) [compound 069, rac-3-[4-(4-isopropoxyphenyl)sulfonylmorpholin-2-yl]benzothiophene-2-carboxamide] | < 1000 |
| Cc1cc(S(=O)(=O)N2CCOC(c3c(C(=O)NCCO)sc4ccccc34)C2)ccc1F (racemic) [compound 029, rac-3-[4-(4-fluoro-3-methyl-phenyl)sulfonylmorpholin-2-yl]-N-(2-hydroxyethyl)benzothiophene-2-carboxamide] | > 2000 |
| Cc1nc(S(=O)(=O)N2CCOC(c3c(C(N)=O)sc4ccccc34)C2)cn1C (racemic) [compound 002, rac-3-[4-(1,2-dimethylimidazol-4-yl)sulfonylmorpholin-2-yl]benzothiophene-2-carboxamide] | > 2000 |
| COc1ccc(S(=O)(=O)N2CCOC(c3c(C(N)=O)sc4ccccc34)C2)cc1[N+](=O)[O-] (racemic) [compound 047, rac-3-[4-(4-methoxy-3-nitro-phenyl)sulfonylmorpholin-2-yl]benzothiophene-2-carboxamide] | > 2000 |
| NC(=O)c1sc2ccccc2c1C1CN(S(=O)(=O)c2ccc(N3CCCC3=O)cc2)CCO1 (racemic) [compound 015, rac-3-[4-[4-(2-oxopyrrolidin-1-yl)phenyl]sulfonylmorpholin-2-yl]benzothiophene-2-carboxamide] | > 2000 |
| NC(=O)c1sc2ccccc2c1C1CN(S(=O)(=O)c2cccc(C(F)(F)F)c2)CCO1 (racemic) [compound 035, rac-3-[4-[3-(trifluoromethyl)phenyl]sulfonylmorpholin-2-yl]benzothiophene-2-carboxamide] | < 1000 |
| Cc1c(S(=O)(=O)N2CCOC(c3c(C(=O)N(C)C)sc4ccccc34)C2)cnn1C (stereo not drawn) [compound 079, 3-{4-[(1,5-dimethyl-1H-pyrazol-4-yl)sulfonyl]-2-morpholinyl}-N,N-dimethyl-1-benzothiophene-2-carboxamide] | > 2000 |
| NC(=O)C1=C(C2CN(S(=O)(=O)c3ccc(C(F)(F)F)c(F)c3)CCO2)c2ccccc2S1(=O)=O (racemic) [compound 074, rac-1,1-dioxo-3-[4-[3-fluoro-4-(trifluoromethyl)phenyl]sulfonylmorpholin-2-yl]benzothiophene-2-carboxamide] | < 1000 |
| N#Cc1ccc(S(=O)(=O)N2CCOC(c3c(C(N)=O)sc4ccccc34)C2)cc1 (racemic) [compound 037, rac-3-[4-(4-cyanophenyl)sulfonylmorpholin-2-yl]benzothiophene-2-carboxamide] | > 2000 |
| NC(=O)c1sc2ccccc2c1C1CN(S(=O)(=O)c2cccc(F)c2)CCO1 (racemic) [compound 020, rac-3-[4-(3-fluorophenyl)sulfonylmorpholin-2-yl]benzothiophene-2-carboxamide] | 1000 to 2000 |
| NC(=O)c1sc2ccccc2c1C1CN(S(=O)(=O)c2ccccc2C(F)(F)F)CCO1 (racemic) [compound 066, rac-3-[4-[2-(trifluoromethyl)phenyl]sulfonylmorpholin-2-yl]benzothiophene-2-carboxamide] | > 2000 |
| NC(=O)c1sc2ccccc2c1C1CN(S(=O)(=O)c2ccc(Oc3ccncc3)cc2)CCO1 (racemic) [compound 024, rac-3-[4-[4-(4-pyridyloxy)phenyl]sulfonylmorpholin-2-yl]benzothiophene-2-carboxamide] | > 2000 |
| CCNC(=O)c1sc2ccccc2c1C1CN(S(=O)(=O)c2ccc(F)c(C)c2)CCO1 (racemic) [compound 030, rac-N-ethyl-3-[4-(4-fluoro-3-methyl-phenyl)sulfonylmorpholin-2-yl]benzothiophene-2-carboxamide] | > 2000 |
| Cc1cccc(S(=O)(=O)N2CCOC(c3c(C(N)=O)sc4ccccc34)C2)c1 (racemic) [compound 012, rac-3-[4-(m-tolylsulfonyl)morpholin-2-yl]benzothiophene-2-carboxamide] | 1000 to 2000 |
| Cc1n[nH]c(C)c1S(=O)(=O)N1CCOC(c2c(C(=O)N(C)C)sc3ccccc23)C1 (stereo not drawn) [compound 083, 3-{4-[(3,5-dimethyl-1H-pyrazol-4-yl)sulfonyl]-2-morpholinyl}-N,N-dimethyl-1-benzothiophene-2-carboxamide] | > 2000 |
| CN1CCOc2cc(S(=O)(=O)N3CCOC(c4c(C(N)=O)sc5ccccc45)C3)ccc21 (racemic) [compound 057, rac-3-[4-[(4-methyl-2,3-dihydro-1,4-benzoxazin-7-yl)sulfonyl]morpholin-2-yl]benzothiophene-2-carboxamide] | < 1000 |
| NC(=O)c1sc2ccccc2c1C1CN(S(=O)(=O)c2ccc(F)c(C(F)(F)F)c2)CCO1 (racemic) [compound 038, rac-3-[4-[4-fluoro-3-(trifluoromethyl)phenyl]sulfonylmorpholin-2-yl]benzothiophene-2-carboxamide] | > 2000 |
| CN(C)C(=O)c1sc2ccccc2c1C1CN(S(=O)(=O)C2CCCC2)CCO1 (stereo not drawn) [compound 078, 3-[4-(cyclopentylsulfonyl)-2-morpholinyl]-N,N-dimethyl-1-benzothiophene-2-carboxamide] | > 2000 |
| NC(=O)c1sc2ccccc2c1C1CN(S(=O)(=O)c2ccc(F)cc2)CCO1 (racemic) [compound 022, rac-3-[4-(4-fluorophenyl)sulfonylmorpholin-2-yl]benzothiophene-2-carboxamide] | > 2000 |
| NC(=O)c1sc2ccccc2c1C1CN(S(=O)(=O)c2ccccc2OC(F)(F)F)CCO1 (racemic) [compound 067, rac-3-[4-[2-(trifluoromethoxy)phenyl]sulfonylmorpholin-2-yl]benzothiophene-2-carboxamide] | > 2000 |
| CC(C)NC(=O)c1sc2ccccc2c1C1CN(S(=O)(=O)c2cnn(C)c2)CCO1 (stereo not drawn) [compound 076, 3-[4-(1-methyl-1H-pyrazole-4-sulfonyl)-morpholin-2-yl]-benzo[b]thiophene-2-carboxylic acid isopropylamide] | > 2000 |
| NC(=O)c1sc2ccccc2c1C1CN(S(=O)(=O)c2ccc([N+](=O)[O-])cc2)CCO1 (racemic) [compound 065, rac-3-[4-(4-nitrophenyl)sulfonylmorpholin-2-yl]benzothiophene-2-carboxamide] | > 2000 |
| NC(=O)c1sc2ccccc2c1C1CN(S(=O)(=O)C2CCOCC2)CCO1 (racemic) [compound 058, rac-3-[4-tetrahydropyran-4-ylsulfonylmorpholin-2-yl]benzothiophene-2-carboxamide] | > 2000 |
| COc1ccccc1S(=O)(=O)N1CCOC(c2c(C(N)=O)sc3ccccc23)C1 (racemic) [compound 050, rac-3-[4-(2-methoxyphenyl)sulfonylmorpholin-2-yl]benzothiophene-2-carboxamide] | > 2000 |
| COCCS(=O)(=O)N1CCOC(c2c(C(N)=O)sc3ccccc23)C1 (racemic) [compound 059, rac-3-[4-(2-methoxyethylsulfonyl)morpholin-2-yl]benzothiophene-2-carboxamide] | > 2000 |
